According to PMC3692405, “Disease-associated mutations in CNGB3 promote cytotoxicity in photoreceptor-derived cells” (Molecular Vision, 2013):
Positions count from the first letter of the chain named. Like-named read-outs stand apart in the source and are kept apart here.

Experiments:
Format in all cases: biochemical
Conditions in all cases: in the presence of 0.1 µM CPT-cGMP
[1] = target: T1, WT human CNGA3 plus WT CNGB3 heteromeric channels (Homo sapiens, UniProt Q16281+Q9NQW8); assay: Inside-out patch-clamp recording of channels expressed in Xenopus oocytes (WT heteromeric)
T1 construct: expressed in transfected cells; host or cells: Xenopus laevis oocytes injected with cRNA transcribed from pGEMHE constructs
T1 sequence (Q16281 1-694): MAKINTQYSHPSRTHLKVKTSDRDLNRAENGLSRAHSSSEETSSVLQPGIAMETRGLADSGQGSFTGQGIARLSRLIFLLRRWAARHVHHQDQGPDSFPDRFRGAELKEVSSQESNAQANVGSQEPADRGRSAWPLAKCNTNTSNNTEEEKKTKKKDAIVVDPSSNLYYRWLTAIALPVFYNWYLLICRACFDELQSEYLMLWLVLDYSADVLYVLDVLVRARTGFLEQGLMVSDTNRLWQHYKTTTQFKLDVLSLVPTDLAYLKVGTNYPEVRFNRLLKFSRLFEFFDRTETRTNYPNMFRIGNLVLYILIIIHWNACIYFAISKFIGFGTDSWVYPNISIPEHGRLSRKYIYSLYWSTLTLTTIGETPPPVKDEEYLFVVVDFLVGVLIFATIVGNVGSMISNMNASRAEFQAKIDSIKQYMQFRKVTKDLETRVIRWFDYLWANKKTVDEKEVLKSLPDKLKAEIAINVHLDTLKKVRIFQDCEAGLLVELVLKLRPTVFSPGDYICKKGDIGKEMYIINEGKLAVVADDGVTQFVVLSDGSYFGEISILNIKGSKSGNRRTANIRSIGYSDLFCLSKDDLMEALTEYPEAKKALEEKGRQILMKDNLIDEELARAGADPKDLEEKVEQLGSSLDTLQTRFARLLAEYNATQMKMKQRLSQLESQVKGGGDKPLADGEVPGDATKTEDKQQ
T1 sequence (Q9NQW8 1-809): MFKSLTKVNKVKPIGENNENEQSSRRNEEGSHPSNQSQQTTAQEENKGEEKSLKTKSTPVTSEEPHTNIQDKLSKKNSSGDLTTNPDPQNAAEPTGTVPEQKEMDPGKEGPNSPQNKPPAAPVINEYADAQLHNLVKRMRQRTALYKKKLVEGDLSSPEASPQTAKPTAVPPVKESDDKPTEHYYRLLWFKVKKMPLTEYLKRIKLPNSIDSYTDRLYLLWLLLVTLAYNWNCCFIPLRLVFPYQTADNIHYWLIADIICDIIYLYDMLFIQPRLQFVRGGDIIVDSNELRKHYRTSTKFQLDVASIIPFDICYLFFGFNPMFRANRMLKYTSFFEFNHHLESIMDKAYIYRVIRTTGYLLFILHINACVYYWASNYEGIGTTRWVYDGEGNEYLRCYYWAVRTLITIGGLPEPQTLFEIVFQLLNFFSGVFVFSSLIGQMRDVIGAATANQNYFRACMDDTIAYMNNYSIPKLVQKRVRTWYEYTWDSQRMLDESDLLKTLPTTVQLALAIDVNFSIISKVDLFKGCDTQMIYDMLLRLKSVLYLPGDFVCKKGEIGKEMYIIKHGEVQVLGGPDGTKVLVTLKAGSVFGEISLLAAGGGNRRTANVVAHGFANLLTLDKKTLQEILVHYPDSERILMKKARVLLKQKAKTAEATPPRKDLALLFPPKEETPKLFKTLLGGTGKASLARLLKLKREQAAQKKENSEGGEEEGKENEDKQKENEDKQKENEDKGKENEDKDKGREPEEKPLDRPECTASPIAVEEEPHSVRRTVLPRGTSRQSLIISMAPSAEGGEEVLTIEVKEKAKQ
Protocol: (§1) For heterologous expression in Xenopus laevis oocytes, identical amounts of cDNA were linearized using SphI or NheI, and capped cRNA was transcribed in vitro using the T-7 RNA polymerase mMESSAGE mMACHINE® kit (Ambion, Austin, TX). cRNA concentrations and relative amounts were determined by denaturing gel electrophoresis and KODAK 1D image analysis software (Rochester, NY), as well as by spectrophotometry. […] Oocytes were incubated in ND96 (96 mM NaCl, 2 mM KCl, 1.8 mM CaCl2, 1 mM MgCl2, and 5 mM HEPES, pH 7.6, supplemented with 10 μg/ml gentamycin).
(§2) Two to seven days after microinjection of cRNA, patch-clamp experiments were performed using the inside-out configuration with an Axopatch 200B amplifier (Axon Instruments, Foster City, CA). Recordings were made at 20–23 °C. Data were acquired using Pulse software (HEKA Elektronik, Lambrecht, Germany). Current traces were elicited by voltage steps from a holding potential of 0 mV to +80 mV, then to −80 mV and back to 0 mV. Initial pipette resistances were 0.4–0.8 megaohms. Intracellular and extracellular solutions contained 130 mM NaCl, 0.2 mM EDTA, and 3 mM HEPES (pH 7.2). Intracellular solutions were exchanged using an RSC-160 rapid solution changer (Molecular Kinetics, Indianapolis, IN). Currents in the absence of cyclic nucleotides were subtracted. For channel activation by CPT-cGMP or CPT-cAMP, dose–response data were fitted with the Hill equation, I/Imax=([cNMP]^h/(K1/2^h + [cNMP]^h)), where I is the current amplitude at +80 mV, Imax is the maximum current elicited by saturating concentration of ligand, [cNMP] is the ligand concentration, K1/2 is the apparent ligand affinity, and h is the Hill slope. We measured sensitivity to block by L-cis-diltiazem (RBI, Natick, MA) applied to the intracellular face of the patch in the presence of 0.1 μM CPT-cGMP. Data were fit with a modified Hill equation in the form I blocker/I=(K1/2^h/(K1/2^h + [blocker]^h)). Data were analyzed using Igor (Wavemetrics, Lake Oswego, OR), SigmaPlot, and SigmaStat (Systat Software Inc., San Jose, CA). All values are reported as the mean±standard error of the mean of n experiments unless otherwise indicated. Statistical significance was determined using a Student t test or Mann–Whitney rank sum test, and a p value of <0.05 was considered significant.

[2] = target: T2, CNGA3 plus CNGB3 T383fsX channels (Homo sapiens, UniProt Q16281); assay: Inside-out patch-clamp recording of channels expressed in Xenopus oocytes (CNGB3 T383fsX)
T2 construct: expressed in transfected cells; host or cells: Xenopus laevis oocytes injected with cRNA transcribed from pGEMHE constructs
T2 sequence (Q16281 1-694): T1 sequence (Q16281 1-694)
Protocol: as §1, §2

[3] = target: T3, CNGA3 plus CNGB3-F525N channels (Homo sapiens, UniProt Q16281+Q9NQW8, F525N); assay: Inside-out patch-clamp recording of channels expressed in Xenopus oocytes (CNGB3 F525N)
T3 construct: expressed in transfected cells; host or cells: Xenopus laevis oocytes injected with cRNA transcribed from pGEMHE constructs
T3 sequence (Q16281 1-694): T1 sequence (Q16281 1-694)
T3 sequence (Q9NQW8 1-809 F525N): T1 sequence (Q9NQW8 1-809) with F525N
Protocol: as §1, §2

[4] = Figure 6B, read-out: K1/2,L-cis-dilt., dose-response fit of Figure 6B
[5] = intracellular face, mean±SEM, n=5, read-out: apparent affinity for L-cis-diltiazem K1/2, L-cis-dilt. (channel block)

Hill slope h, block by L-cis-diltiazem, Figure 6B ([1]; Figure 6B): 0.5
IC50 [1, 4]: 4.1 µM
IC50 [1, 5]: 4.06 ± 1 µM
Hill slope h, block by L-cis-diltiazem, Figure 6B ([2]; Figure 6B): 0.3
IC50 [2, 4]: 135 µM
IC50 ([2]; intracellular face, mean±SEM, n=4, read-out: apparent affinity for L-cis-diltiazem K1/2, L-cis-dilt. (channel block)): 77.9 ± 23.1 µM
Hill slope h, block by L-cis-diltiazem, Figure 6B ([3]; Figure 6B): 0.7
IC50 [3, 4]: 4.2 µM
IC50 [3, 5]: 3.03 ± 0.75 µM
Structure (SMILES): COc1ccc([C@@H]2Sc3ccccc3N(CCN(C)C)C(=O)[C@@H]2OC(C)=O)cc1 [L-cis-diltiazem]
